Assay results as given in patent US20260001914A1, “MACROCYCLIC PEPTIDES TARGETING KRAS” (Merck Sharp & Dohme LLC, priority 2022, published 2026).
*1 amine or outer side, *2 acyl side, *3 side chain or, on linkers, in order; H or OH if unused. Where a SMILES comes first, the peptide text is derived from it. Bridges are numbered along the chain shown (N, C = ends). [ ]: non-standard residue; d: D form. The star is where a group is joined. NMeNva(5-imidazol-1-yl) = CN[C@@H](CCCn1ccnc1)C(=O)O; Phe(4-guanidino) = N=C(N)Nc1ccc(C[C@H](N)C(=O)O)cc1; X19 = C[C@H](c1ccccc1)[C@@H](C(=O)[*:2])N(C)[*:1]; Phe(3,4-Cl2) = N[C@@H](Cc1ccc(Cl)c(Cl)c1)C(=O)O; Ala(pyrimidin-5-yl) = N[C@@H](Cc1cncnc1)C(=O)O; NMe3Pal(6-Me) = CN[C@@H](Cc1ccc(C)nc1)C(=O)O; Trp(1-Me) = Cn1cc(C[C@H](N)C(=O)O)c2ccccc21; Ethyl(2-pyrrolidin-1-yl) = C1CCN(CC*)C1; X11 = CC(C)(F)CC[C@H](N[*:1])C(=O)[*:2]; NMeAha = CN[C@@H](CCN=[N+]=[N-])C(=O)O; X35 = CN([C@@H](CCCF)C(=O)[*:2])[*:1]; Phe(2-F) = N[C@@H](Cc1ccccc1F)C(=O)O; NMe3Pal = CN[C@@H](Cc1cccnc1)C(=O)O; X1 = O=C(C12CC(CN[*:1])(C1)C2)[*:2]; NMeLys(Me) = CNCCCC[C@H](NC)C(=O)O; Ala(cPr) = N[C@@H](CC1CC1)C(=O)O; NMeF = CN[C@@H](Cc1ccccc1)C(=O)O; PhLac = O=C(O)[C@@H](O)Cc1ccccc1; X9 = CCCC[C@H](O[*:1])C(=O)[*:2]; 3Pal = N[C@@H](Cc1cccnc1)C(=O)O; Ahp(2) = CCCCC[C@H](N)C(=O)O; Ala(CN) = N#CC[C@H](N)C(=O)O; Cba = N[C@@H](CC1CCC1)C(=O)O; hLeu = CC(C)CC[C@H](N)C(=O)O; αMeC = C[C@](N)(CS)C(=O)O; NMeA = CN[C@@H](C)C(=O)O; Nle = CCCC[C@H](N)C(=O)O

These molecules were tested against KRAS-G12D protein (Homo sapiens, UniProt P01116, G12D) (assay: SOS-mediated nucleotide exchange assay (BODIPY-GDP / Tb-streptavidin TR-FRET)).
KRAS-G12D protein, sequence (P01116 1-188 isoform P01116-2 G12D): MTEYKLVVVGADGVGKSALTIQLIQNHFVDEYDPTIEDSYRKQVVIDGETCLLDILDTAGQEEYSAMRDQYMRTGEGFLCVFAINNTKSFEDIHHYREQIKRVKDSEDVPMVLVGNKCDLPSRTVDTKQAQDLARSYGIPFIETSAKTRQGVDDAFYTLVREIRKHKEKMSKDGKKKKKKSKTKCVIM
Format: biochemical

In order of falling EC50:
1. CCCC[C@@H]1NC(=O)[C@H](Cc2cccnc2)NC(=O)[C@H](CCCn2ccnc2)N(C)C(=O)[C@H](Cc2ccccc2)N(C)C(=O)C23CC(CNC(=O)[C@H](Cc4cccnc4)N(C)C(=O)[C@H](CCCC)NC(=O)[C@H](Cc4ccccc4F)NC1=O)(C2)C3 [compound 264, cyclo(NMeF-NMeNvalmid-3Pal-Nle-Phe2F-Nle-NMe3Pal-amBCP)] (cyclo([3Pal][Nle][Phe(2-F)][Nle][NMe3Pal][X1][NMeF][NMeNva(5-imidazol-1-yl)]))  4030 nM
2. CCCC[C@@H]1NC(=O)[C@H](Cc2ccccc2F)NC(=O)[C@H](CCCC)OC(=O)[C@H](Cc2cccnc2)NC(=O)[C@H](CCN=[N+]=[N-])N(C)C(=O)[C@H](Cc2ccccc2)NC(=O)C23CC(CNC(=O)[C@H](Cc4cccnc4)N(C)C1=O)(C2)C3 [compound 250, cyclo(F-NMeDabN3-3Pal-NleLac-Phe2F-Nle-NMe3Pal-amBCP)] (cyclo(F[NMeAha][3Pal][X9][Phe(2-F)][Nle][NMe3Pal][X1]))  3880 nM
3. CCCC[C@@H]1NC(=O)[C@H](Cc2cccnc2)NC(=O)[C@H](CC#N)NC(=O)[C@H](Cc2ccccc2)OC(=O)C23CC(CNC(=O)[C@H](Cc4cccnc4)N(C)C(=O)[C@H](CCCC)NC(=O)[C@H](Cc4ccccc4F)NC1=O)(C2)C3 [compound 252, cyclo(FLac-AlaCN-3Pal-Nle-Phe2F-Nle-NMe3Pal-amBCP)] (cyclo([3Pal][Nle][Phe(2-F)][Nle][NMe3Pal][X1][PhLac][Ala(CN)]))  3750 nM
4. C[C@H](c1ccccc1)[C@H]1C(=O)NCC23CC(C2)(C3)C(=O)O[C@@H](Cc2ccccc2)C(=O)N(C)[C@@H](C)C(=O)N[C@@H](Cc2cncnc2)C(=O)N[C@@H](CC2CC2)C(=O)N[C@@H](Cc2ccccc2F)C(=O)N[C@@H](CCC(C)(C)F)C(=O)N1C [compound 341, cyclo(FLac-NMeA-PyrimAla-cPrA-Phe2F-hL3F-NMeRbMeF-amBCP)] (cyclo([Ala(cPr)][Phe(2-F)][X11][X19][X1][PhLac][NMeA][Ala(pyrimidin-5-yl)]))  1370 nM
5. CCCC[C@@H]1NC(=O)[C@H](Cc2cccnc2)NC(=O)[C@H](CCCNC(=N)N)NC(=O)[C@H](Cc2ccccc2)NC(=O)CSC[C@@](C)(C(=O)O)NC(=O)[C@H](Cc2cccnc2)N(C)C(=O)[C@H](CCCC)NC(=O)[C@H](Cc2ccccc2F)NC1=O [compound 148, cyclo(F-R-3Pal-Nle-Phe2F-Nle-NMe3Pal-aMeC-ClAc)] ({CH2CO}-FR[3Pal][Nle][Phe(2-F)][Nle][NMe3Pal][αMeC]-OH; thioether N-8)  370 nM
6. CCCCC[C@@H]1NC(=O)[C@H](Cc2ccc(OC)cc2)NC(=O)[C@H](CC2CCC2)NC(=O)[C@H](Cc2ccc(NC(=N)N)cc2)NC(=O)[C@H](CCCCNC)N(C)C(=O)[C@H](Cc2ccccc2)NC(=O)CSC[C@@](C)(C(N)=O)NC(=O)[C@H](Cc2ccccc2)N(C)C1=O [compound 360, cyclo(F-NMeLysMe-Phe4Gn-cBuA-TyrOMe-Ahp-NMeF-aMeCl-ClAc)] ({CH2CO}-F[NMeLys(Me)][Phe(4-guanidino)][Cba]Y(Me)[Ahp(2)][NMeF][αMeC]-NH2; thioether N-8)  291 nM
7. CCCCC[C@@H]1NC(=O)[C@H](Cc2ccc(O)cc2)NC(=O)[C@H](CC(C)C)NC(=O)[C@H](Cc2ccc(O)cc2)NC(=O)[C@H](CCCNC(=N)N)NC(=O)[C@H](Cc2cn(C)c3ccccc23)NC(=O)CSC[C@@H](C(N)=O)NC(=O)[C@H](Cc2ccccc2)N(C)C1=O [compound 6, cyclo(TrplMe-R-Y-L-Y-Ahp-NMeF-Cl-ClAc)] ({CH2CO}-[Trp(1-Me)]RYLY[Ahp(2)][NMeF]C-NH2; thioether N-8)  288 nM
8. CCCCC[C@@H]1NC(=O)[C@H](Cc2ccc(OC)cc2)NC(=O)[C@H](CC2CCC2)NC(=O)[C@H](Cc2cccnc2)NC(=O)[C@H](C)N(C)C(=O)[C@H](Cc2ccccc2)NC(=O)CSC[C@@](C)(C(N)=O)NC(=O)[C@H](Cc2ccccc2)N(C)C1=O [compound 158, cyclo(F-NMeA-3Pal-cBuA-TyrOMe-Ahp-NMeF-aMeCl-ClAc)] ({CH2CO}-F[NMeA][3Pal][Cba]Y(Me)[Ahp(2)][NMeF][αMeC]-NH2; thioether N-8)  146 nM
9. CCCC[C@@H]1NC(=O)[C@H](Cc2ccc(Cl)c(Cl)c2)NC(=O)[C@H](C)N(C)C(=O)[C@H](Cc2ccccc2)OC(=O)C23CC(CNC(=O)[C@H](Cc4ccccc4)N(C)C(=O)[C@H](CCCC)NC(=O)[C@H](Cc4ccccc4F)NC1=O)(C2)C3 [compound 309, cyclo(FLac-NMeA-Phe34Cl2-Nle-Phe2F-Nle-NMeF-amBCP)] (cyclo([NMeA][Phe(3,4-Cl2)][Nle][Phe(2-F)][Nle][NMeF][X1][PhLac]))  108 nM
10. CON=C1C[C@@H](Cc2ccccc2)C(=O)N(C)[C@@H](C)C(=O)N[C@@H](Cc2cncnc2)C(=O)N[C@@H](CC2CC2)C(=O)N[C@@H](Cc2ccccc2F)C(=O)N[C@@H](CCC(C)(F)F)C(=O)N(C)[C@@H](Cc2ccccc2)C(=O)NCC23CC1(C2)C3 (single isomer, unassigned) [compound 177, cyclo(CPhe-NMeA-PyrimAla-cPrA-Phe2F-Nle3F2-NMeF-MeOximamBCP)]  51 nM
11. CC(C)CC[C@@H]1NC(=O)[C@H](Cc2ccccc2F)NC(=O)[C@H](CC2CC2)NC(=O)[C@H](Cc2cncnc2)NC(=O)[C@H](CCCF)N(C)C(=O)[C@H](Cc2ccccc2)OC(=O)C23CC(CNC(=O)[C@H](Cc4ccccc4)N(C)C1=O)(C2)C3 [compound 216, cyclo(FLac-NMeNvaF-PyrimAla-cPrA-Phe2F-hL-NMeF-amBCP)] (cyclo([Ala(cPr)][Phe(2-F)][hLeu][NMeF][X1][PhLac][X35][Ala(pyrimidin-5-yl)]))  26 nM
12. CCCCC[C@@H]1NC(=O)[C@H](Cc2ccc(OC)cc2)NC(=O)[C@H](CC2CCC2)NC(=O)[C@H](Cc2ccc(=O)[nH]c2)NC(=O)[C@H](CCCNC(=N)N)NC(=O)[C@H](Cc2ccccc2)NC(=O)CSC[C@@](C)(C(N)=O)NC(=O)[C@H](Cc2ccccc2)N(C)C1=O [compound 369, cyclo(F-R-4CO3Pal-cBuA-TyrOMe-Abp-NMeF-aMeCl-ClAc)]  19.4 nM
13. CCCC[C@@H]1NC(=O)[C@H](Cc2cccnc2)NC(=O)[C@H](C)N(C)C(=O)[C@H](Cc2ccccc2)OC(=O)C23CC(CNC(=O)[C@H](Cc4ccc(C)nc4)N(C)C(=O)[C@H](CCCC)NC(=O)[C@H](Cc4ccccc4F)NC1=O)(C2)C3 [compound 402, cyclo(FLac-NMeA-3Pal-Nle-Phe2F-Nle-NMe3Pal4Me-amBCP)] (cyclo([3Pal][Nle][Phe(2-F)][Nle][NMe3Pal(6-Me)][X1][PhLac][NMeA]))  18 nM
14. CCCCC[C@@H]1NC(=O)[C@H](Cc2ccc(OC)cc2)NC(=O)[C@H](CC2CCC2)NC(=O)[C@H](Cc2cccnc2)NC(=O)[C@H](CCCNC(=N)N)NC(=O)[C@H](Cc2ccccc2)OC(=O)C23CC(CNC(=O)[C@H](Cc4ccccc4)N(C)C1=O)(C2)C3 [compound 211, cyclo(FLac-R-3Pal-cBuA-TyrOMe-Ahp-NMeF-amBCP)] (cyclo([PhLac]R[3Pal][Cba]Y(Me)[Ahp(2)][NMeF][X1]))  10.8 nM
15. CCCCC[C@@H]1NC(=O)[C@H](Cc2ccc(OC)cc2)NC(=O)[C@H](CC2CCC2)NC(=O)[C@H](Cc2ccc(OCCN3CCCC3)cc2)NC(=O)[C@H](CCCNC(=N)N)NC(=O)[C@H](Cc2ccccc2)NC(=O)CSC[C@@](C)(C(N)=O)NC(=O)[C@H](Cc2ccccc2)N(C)C1=O [compound 383, cyclo(F-R-TyrOEtPyr-cBuA-TyrOMe-Ahp-NMeF-aMeCl-ClAc)] ({CH2CO}-FRY(Ethyl(2-pyrrolidin-1-yl))[Cba]Y(Me)[Ahp(2)][NMeF][αMeC]-NH2; thioether N-8)  9.79 nM
